Results as given in patent US20060074243A1, “Hydroxamic acid and amide compounds and their use as protease inhibitors” (Pharmacia Corporation, priority 2002, published 2006).

Key:
Human recombinant MMP-13 = target: T1, Human recombinant MMP-13 (Homo sapiens, UniProt P45452); assay: In vitro MMP inhibition analysis (fluorogenic peptide substrate cleavage), Ki; format: biochemical; conditions: Table 2
T1 construct: made in house; host or cells: baculovirus / insect cells
Summary of the method: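 Baculovirus-expressed full-length MMP-13 proenzyme was purified on heparin-agarose and zinc-chelate columns, then APMA-activated. It cleaved 4 μM MCA/Dpa fluorogenic peptide in 100 mM Tris-HCl, 100 mM NaCl, 10 mM CaCl2, 0.05% Brij-23, pH 7.5, for 1 h at room temperature (ex 330/em 420 nm). Ki came from Morrison-equation fits with substrate ≤Km, uncorrected.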

Human recombinant MMP-1 = target: T2, Human recombinant MMP-1 (Homo sapiens, UniProt P03956); assay: as above; format: biochemical; conditions: Table 2
T2 construct: made in house; host or cells: MMP-1-transfected HT-1080 cells (spent media)
T2 sequence (P03956 100-469): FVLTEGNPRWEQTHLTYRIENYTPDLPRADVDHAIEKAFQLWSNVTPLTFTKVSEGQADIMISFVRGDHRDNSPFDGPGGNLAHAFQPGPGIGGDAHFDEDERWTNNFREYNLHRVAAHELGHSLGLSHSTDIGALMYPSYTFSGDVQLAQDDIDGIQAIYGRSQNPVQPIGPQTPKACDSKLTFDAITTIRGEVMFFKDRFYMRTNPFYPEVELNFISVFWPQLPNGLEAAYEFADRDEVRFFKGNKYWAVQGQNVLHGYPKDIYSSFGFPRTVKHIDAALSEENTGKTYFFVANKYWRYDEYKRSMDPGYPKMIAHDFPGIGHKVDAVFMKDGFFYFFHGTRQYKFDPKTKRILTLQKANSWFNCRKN
Summary of the method: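 APMA- or trypsin-activated recombinant human MMP-1 (purified from transfected HT-1080 medium) with 4 μM MCA/Dpa quenched fluorogenic peptide, 1 h at room temperature in Tris/NaCl/CaCl2 buffer pH 7.5; fluorescence ex 330/em 420 nm. Ki from Morrison-equation fit of rates, substrate at or below Km, uncorrected.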

Compound	Ki (Human recombinant MMP-13) [nM]	Ki (Human recombinant MMP-1) [nM]
COCCOc1ccc(-c2ccc(S(=O)(=O)C3(C(=O)NO)CCOCC3)cc2)cc1 [Example 70]	0.03	969
CCCCOc1ccc(-c2ccc(S(=O)(=O)C3(C(=O)NO)CCOCC3)cc2)cc1 [Example 77]	0.0485	1290
CCCCOc1ccc(-c2ccc(S(=O)(=O)C3(C(=O)NO)CCOCC3)cc2)cc1C(F)(F)F [Example 78]	16.6	> 10000
CCc1ccc(-c2ccc(S(=O)(=O)C3(C(=O)NO)CCOCC3)cc2)cc1 [Example 79]	0.091	471
O=C(NO)C1(S(=O)(=O)c2ccc(-c3ccc(OC(F)(F)F)cc3)cc2)CCOCC1 [Example 80]	0.068	577
Cc1ccc(-c2ccc(S(=O)(=O)C3(C(=O)NO)CCOCC3)cc2)nc1 [Example 81]	0.118	354
O=C(NO)C1(S(=O)(=O)c2ccc(-c3ccc(C(F)(F)F)cn3)cc2)CCOCC1 [Example 82]	0.13	256
CCCCNc1cnc(-c2ccc(S(=O)(=O)C3(C(=O)NO)CCOCC3)cc2)cn1 [Example 83]	1.31	> 10000
O=C(NO)C1(S(=O)(=O)c2ccc(-c3ccc(F)c(C(F)(F)F)c3)cc2)CCOCC1 [Example 84]	1.85	> 10000
O=C(NO)C1(S(=O)(=O)c2ccc(-c3ccc(OCC(F)(F)C(F)F)c(C(F)(F)F)c3)cc2)CCOCC1 [Example 85]	14.7	> 10000
CC(C)CCOc1ccc(-c2ccc(S(=O)(=O)C3(C(=O)NO)CCOCC3)cc2)cc1C(F)(F)F [Example 86]	36.2	> 10000
CCCc1ccc(-c2ccc(S(=O)(=O)C3(C(=O)NO)CCOCC3)cc2)cc1 [Example 87]	0.138	1110
O=C(NO)C1(S(=O)(=O)c2ccc(-c3cnc(OCCCC(F)(F)F)cn3)cc2)CCOCC1 [Example 88]	0.0368	3520
CCCCc1ccc(-c2ccc(S(=O)(=O)C3(C(=O)NO)CCOCC3)cc2)nc1 [Example 89]	0.0332	2260
O=C(NO)C1(S(=O)(=O)c2ccc(-c3ccc(OCC(F)(F)C(F)(F)F)c(C(F)(F)F)c3)cc2)CCOCC1 [Example 90]	19.7	> 10000
CCCCc1ccc(-c2ccc(S(=O)(=O)C3(C(=O)NO)CCOCC3)cc2)cc1 [Example 91]	0.217	3900
CCC(C)COc1ccc(-c2ccc(S(=O)(=O)C3(C(=O)NO)CCOCC3)cc2)cc1C(F)(F)F (stereo not shown) [Example 92]	29.7	> 10000
CCNc1cnc(-c2ccc(S(=O)(=O)C3(C(=O)NO)CCOCC3)cc2)cn1 [Example 93]	4.45	> 10000
O=C(NO)C1(S(=O)(=O)c2ccc(-c3cnc(-n4cccc4)cn3)cc2)CCOCC1 [Example 94]	0.428	> 10000

Compound	Ki (Human recombinant MMP-13) [nM]	Ki (Human recombinant MMP-1) [nM]
O=C(NO)C1(S(=O)(=O)c2ccc(-c3ccc(OCC(F)(F)C(F)(F)F)cc3)cc2)CCOCC1 [Example 95]	0.155	1020
O=C(NO)C1(S(=O)(=O)c2ccc(-c3ccc(C(F)(F)F)cc3F)cc2)CCOCC1 [Example 96]	0.416	602
CC(C)c1ccc(-c2ccc(S(=O)(=O)C3(C(=O)NO)CCOCC3)cc2)cc1 [Example 97]	0.521	1040
COC/C(Cl)=C/c1cnc(-c2ccc(S(=O)(=O)C3(C(=O)NO)CCOCC3)cc2)cn1 [Example 165]	0.84	8950
CC(C)CC#Cc1cnc(-c2ccc(S(=O)(=O)C3(C(=O)NO)CCOCC3)cc2)cn1 [Example 166]	0.03	1660
O=C(NO)C1(S(=O)(=O)c2ccc(-c3ccc(CCC(F)(F)C(F)(F)F)cc3)cc2)CCS(=O)(=O)CC1 [Example 167]	0.74	> 10000
O=C(NO)C1(S(=O)(=O)c2ccc(-c3cnc(OCC4CC4)cn3)cc2)CCOCC1 [Example 168]	0.06	1920
CC(C)CCc1cnc(-c2ccc(S(=O)(=O)C3(C(=O)NO)CCOCC3)cc2)cn1 [Example 169]	0.24	> 10000
CC(C)COc1cnc(-c2ccc(S(=O)(=O)C3(C(=O)NO)CCOCC3)cc2)cn1 [Example 170]	0.08	693
O=C(N1CCOCC1)N1CCC(C(=O)NO)(S(=O)(=O)c2ccc(-c3ccc(CCC(F)(F)C(F)(F)F)cc3)cc2)CC1 [Example 171]	0.23	6370
O=C(NO)C1(S(=O)(=O)c2ccc(-c3cnc(OCCC4CC4)cn3)cc2)CCOCC1 [Example 172]	0.03	1360
CN(C)C(=O)N1CCC(C(=O)NO)(S(=O)(=O)c2ccc(-c3ccc(CCC(F)(F)C(F)(F)F)cc3)cc2)CC1 [Example 173]	0.32	4610
CC(C)N(C(=O)N1CCC(C(=O)NO)(S(=O)(=O)c2ccc(-c3ccc(CCC(F)(F)C(F)(F)F)cc3)cc2)CC1)C(C)C [Example 174]	1.92	> 10000
O=C(N1CCCCC1)N1CCC(C(=O)NO)(S(=O)(=O)c2ccc(-c3ccc(CCC(F)(F)C(F)(F)F)cc3)cc2)CC1 [Example 175]	0.71	> 10000
O=C(NO)C1(S(=O)(=O)c2ccc(-c3ccc(CCC(F)(F)F)cn3)cc2)CCOCC1 [Example 176]	0.02	1200
COCCC(C(=O)NO)S(=O)(=O)c1ccc(-c2ccc(CCC(F)(F)C(F)(F)F)cc2)cc1 (stereo not shown) [Example 177]	0.82	> 10000
O=C(NO)C1(S(=O)(=O)c2ccc(-c3cnc(OCC4CCC4)cn3)cc2)CCOCC1 [Example 178]	0.08	1100
COc1ccc(C(=O)c2cnc(-c3ccc(S(=O)(=O)C4(C(=O)NO)CCOCC4)cc3)cn2)cc1 [Example 179]	0.973	> 10000
O=C(NO)C1(S(=O)(=O)c2ccc(-c3cnc(OCCC4CCCC4)cn3)cc2)CCOCC1 [Example 180]	0.15	> 10000

Compound	Ki (Human recombinant MMP-13) [nM]	Ki (Human recombinant MMP-1) [nM]
COC(=O)c1ccc2cc(-c3ccc(S(=O)(=O)C4(C(=O)NO)CCOCC4)cc3)ccc2c1 [Example 181]	0.09	465
COc1ccc(Cc2cnc(-c3ccc(S(=O)(=O)C4(C(=O)NO)CCOCC4)cc3)cn2)cc1 [Example 182]	7.07	> 10000
CO[C@H]1CC[C@](C(=O)NO)(S(=O)(=O)c2ccc(-c3cnc(CCC(F)(F)C(F)(F)F)cn3)cc2)CC1 [Example 183]	0.13	> 10000
CCCCNC(=O)c1cnc(-c2ccc(S(=O)(=O)C3(C(=O)NO)CCOCC3)cc2)cn1 [Example 184]	0.21	533
CC(C)CCNC(=O)c1cnc(-c2ccc(S(=O)(=O)C3(C(=O)NO)CCOCC3)cc2)cn1 [Example 185]	0.19	501
CC(C)CNC(=O)c1cnc(-c2ccc(S(=O)(=O)C3(C(=O)NO)CCOCC3)cc2)cn1 [Example 186]	0.55	1100
COCCO[C@H]1CC[C@](C(=O)NO)(S(=O)(=O)c2ccc(-c3cnc(CCC(F)(F)C(F)(F)F)cn3)cc2)CC1 [Example 187]	0.1	7020
O=C(NO)C1(S(=O)(=O)c2ccc(-c3ccc4c(c3)OCO4)cc2)CCOCC1 [Example 188]	0.08	81.2
O=C(NCC1CCCCC1)c1cnc(-c2ccc(S(=O)(=O)C3(C(=O)NO)CCOCC3)cc2)cn1 [Example 190]	0.28	1310
O=C(NCC1CC1)c1cnc(-c2ccc(S(=O)(=O)C3(C(=O)NO)CCOCC3)cc2)cn1 [Example 191]	0.24	200
O=C(NCC(F)(F)C(F)(F)F)c1cnc(-c2ccc(S(=O)(=O)C3(C(=O)NO)CCOCC3)cc2)cn1 [Example 192]	0.22	1540
O=C(NO)C1(S(=O)(=O)c2ccc(-c3nc4ccccc4o3)cc2)CCOCC1 [Example 193]	1.69	1490
O=C(NO)C1(S(=O)(=O)c2ccc(-c3cnc4ccccc4n3)cc2)CCOCC1 [Example 194]	319	> 10000
O=C(NO)C1(S(=O)(=O)c2ccc(-c3nc4ccccc4s3)cc2)CCOCC1 [Example 195]	7.2	> 10000
O=C1c2ccccc2C(=O)N1CCCOc1cccc(-c2ccc(S(=O)(=O)C3(C(=O)NO)CCOCC3)cc2)c1 [Example 196]	13.5	> 10000
O=C(NO)C1(S(=O)(=O)c2ccc(-c3ccccc3CO)cc2)CCOCC1 [Example 197]	1080	> 10000
O=C(NC1CCCC1)c1ccc(-c2ccc(S(=O)(=O)C3(C(=O)NO)CCOCC3)cc2)nc1 [Example 198]	0.323	552
C#CCN1CCC(C(=O)NO)(S(=O)(=O)c2ccc(-c3ccc(CCC(F)(F)C(F)(F)F)cn3)cc2)CC1 [Example 199]	0.086	4510
